According to ChEMBL document CHEMBL4312002, “Impact of hydroxy moieties at the benzo[7]annulene ring system of GluN2B ligands: Design, synthesis and biological evaluation” (Bioorg Med Chem, 2019):

What was measured:
[1] = Displacement of [3H]ifenprodil from GluN1A/GluN2B (unknown origin) expressed in mouse L(tk-) cell membranes after 120 mins by solid scintillation counting method; parameters: species or system Homo sapiens
[2] = Cytoprotection against glutamate/glycine-induced cytotoxicity against mouse LTK cells expressing GluN1a/GluN2B preincubated 30 mins followed by glutamate/glycine addition and measured after 6 hrs by LDH assay; format: functional, cell-based
[3] = Retention time of (2S,3S,4S,5R)-3,4,5-trihydroxy-6-(7-(methyl(3-phenylpropyl)amino)-6,7,8,9-tetrahydro-5H-benzo[7]annulen-5-yloxy)tetrahydro-2H-pyran-2-carboxylic acid metabolite in C57BL/6 mouse liver microsomes at 25 uM by LC-qTOF/MS analysis; format: ADME, Microsome
[4] = target: Sigma non-opioid intracellular receptor 1 (Cavia porcellus, UniProt Q60492); assay: Displacement of [3H]-(+)-pentazocine from sigma1 receptor in guinea pig brain cortex membranes incubated for 120 mins by solid scintillation counting method; format: cell membranes
Chain of Sigma non-opioid intracellular receptor 1 (Q60492 whole entry): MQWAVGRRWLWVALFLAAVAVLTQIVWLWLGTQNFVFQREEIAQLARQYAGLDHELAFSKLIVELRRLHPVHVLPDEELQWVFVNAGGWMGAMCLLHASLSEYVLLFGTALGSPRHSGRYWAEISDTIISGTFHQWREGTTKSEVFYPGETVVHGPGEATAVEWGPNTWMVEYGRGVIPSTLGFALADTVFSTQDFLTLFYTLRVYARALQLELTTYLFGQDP

[5] = Cytoprotection against glutamate/glycine-induced cytotoxicity against mouse LTK cells expressing GluN1a/GluN2B at 10 uM measured after 30 mins by LDH assay relative to control; format: functional
[6] = target: T1, Sigma intracellular receptor 2 (Rattus norvegicus, UniProt Q5U3Y7); assay: Displacement of [3H]di-o-tolylguanidine from sigma2 receptor in rat liver membranes measured after 120 mins by solid scintillation counting method; format: cell membranes
T1 sequence (Q5U3Y7 whole entry): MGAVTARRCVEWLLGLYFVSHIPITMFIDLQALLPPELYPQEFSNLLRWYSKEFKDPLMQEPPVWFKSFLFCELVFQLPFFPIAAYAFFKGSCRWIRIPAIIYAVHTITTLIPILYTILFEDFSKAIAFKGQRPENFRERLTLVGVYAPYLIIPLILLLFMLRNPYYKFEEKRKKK

Sus scrofa = species on record: Sus scrofa; assay: Displacement of [3H]-(+)-MK-801 from PCP binding site of NMDA receptor in pig brain cortex membranes at 1 uM after 120 mins by solid scintillation counting method relative to control; format: cell membranes
[7] = Cytoprotection against glutamate/glycine-induced cytotoxicity against mouse LTK cells expressing GluN1a/GluN2B assessed as inhibition of cell growth measured after 12 hrs by LDH assay; format: functional, cell-based
[8] = target: Sigma non-opioid intracellular receptor 1 (Cavia porcellus) (UniProt Q60492); assay: Displacement of [3H]-(+)-pentazocine from sigma1 receptor in guinea pig brain cortex membranes at 1 uM incubated for 120 mins by solid scintillation counting method relative to control; format: cell membranes
Chain of Sigma non-opioid intracellular receptor 1 (Cavia porcellus) (Q60492 whole entry): as the sequence (Q60492 whole entry) above

[9] = Drug metabolism in C57BL/6 mouse liver microsomes assessed as (2S,3S,4S,5R)-3,4,5-trihydroxy-6-(7-(methyl(3-phenylpropyl)amino)-6,7,8,9-tetrahydro-5H-benzo[7]annulen-5-yloxy)tetrahydro-2H-pyran-2-carboxylic acid formation at 25 uM incubated for 90 mins in presence of phase 1 and 2 cofactors NADPH and UDPGA by LC-qTOF/MS analysis; format: ADME, Microsome; details: 1.5 h
[10] = Drug metabolism in C57BL/6 mouse liver microsomes assessed as hydroxylation at aliphatic ring at 25 uM incubated for 90 mins in presence of phase 1 cofactor NADPH by LC-qTOF/MS analysis; format: ADME, Microsome; details: 1.5 h
[11] = Drug metabolism in C57BL/6 mouse liver microsomes assessed as hydroxylation at aliphatic and aromatic ring at 25 uM incubated for 90 mins in presence of phase 1 cofactor NADPH by LC-qTOF/MS analysis; format: ADME, Microsome; details: 1.5 h
in vitro = details: C57BL/6, mouse, liver microsomes
Description: Metabolic stability in C57BL/6 mouse liver microsomes assessed as parent compound remaining at 25 uM incubated for 90 mins in presence of NADPH by LC-qTOF/MS analysis

[12] = Drug metabolism in C57BL/6 mouse liver microsomes assessed as glucuronide metabolite formation at 25 uM incubated for 90 mins in presence of phase 1 and 2 cofactors NADPH and UDPGA by LC-qTOF/MS analysis; format: ADME, Microsome; details: 1.5 h
[13] = Retention time of compound in C57BL/6 mouse liver microsomes at 25 uM by LC-qTOF/MS analysis; format: ADME, Microsome
[14] = Drug metabolism in C57BL/6 mouse liver microsomes assessed as hydroxylation at aromatic ring at 25 uM incubated for 90 mins in presence of phase 1 cofactor NADPH by LC-qTOF/MS analysis; format: ADME, Microsome; details: 1.5 h

| SMILES | Ki [1] [nM] | IC50 [2] [nM] | Ki [4] [nM] | Activity [5] [%] | Ki [6] [nM] | inhibition (Sus scrofa) [%] | also measured |
| --- | --- | --- | --- | --- | --- | --- | --- |
| Oc1ccc2c(c1)CCC(NCCCc1ccccc1)CC2 (stereo unspecified) | 28 | > 10000 | – | – | – | – | – |
| CN(CCCc1ccccc1)C1CCc2ccccc2C(O[C@@H]2O[C@H](C(=O)O)[C@@H](O)[C@H](O)[C@H]2O)C1 (stereo partly specified) | – | – | – | – | – | – | Retention_time [3]: 4.8 min |
| CN(CCCCc1ccccc1)C1CCc2ccccc2C(O)C1 (mixture of isomers) | 64 | – | 33 | 10 | 66 | 0 | – |
| COc1ccc2c(c1)CCC(NCCCc1ccccc1)CC2 (stereo unspecified) | 10 | – | – | – | – | – | IC50 [7]: 29 nM |
| c1ccc(CCCNC2CCc3ccccc3CC2)cc1 | 16 | – | – | 29 | – | – | – |
| Oc1ccc2c(c1)CCC(NCCCCc1ccccc1)CC2 (stereo unspecified) | 21 | 3000 | – | – | – | – | – |
| COc1ccc2c(c1)CC[C@@H](NCCCc1ccccc1)C[C@H]2O (racemic) | 16 | – | – | – | – | – | IC50 [7]: 12 nM |
| OC1CC(NCCCCc2ccccc2)CCc2ccccc21 (mixture of isomers) | – | – | 140 | 12 | 100 | 0 | – |
| OC1CC(NCCCc2ccccc2)CCc2ccccc21 (mixture of isomers) | 77 | 1600 | 160 | – | 28 | 0 | – |
| OC1Cc2ccccc2CCC1NCCCc1ccccc1 (mixture of isomers) | 380 | – | 1300 | 22 | 100 | 0 | – |
| OC1c2ccccc2CCC(NCCCc2ccccc2)C1O (mixture of isomers) | 2000 | – | – | 41 | 630 | 14 | inhibition [8]: 17% |
| C[C@@H](CN1CCC(Cc2ccccc2)CC1)[C@@H](O)c1ccc(O)cc1 | 170 | 13 | – | – | – | – | – |
| OC1Cc2ccccc2CCC1NCCCCc1ccccc1 (mixture of isomers) | 270 | – | 430 | 0 | 100 | 0 | – |
| CN(CCCc1ccccc1)C1CCc2ccccc2C(O)C1 (mixture of isomers) | 49 | 580 | 39 | – | 35 | 0 | Drug metabolism [9]: Metabolite_Detected; Drug metabolism [10]: Metabolite_Detected; Drug metabolism [11]: Metabolite_Detected; remaining at 1.5 h, 25 µM (in vitro): 17%; Drug metabolism [12]: Metabolite_Detected; Retention_time [13]: 5.1 min; Drug metabolism [14]: Metabolite_Detected |
| OC(CN1CCC(Cc2ccc(F)cc2)CC1)c1ccc(Cl)cc1 (stereo unspecified) [ELIPRODIL] | 13 | – | – | – | – | – | – |
| CC(C(O)c1ccc(O)cc1)N1CCC(Cc2ccccc2)CC1 (stereo unspecified) [IFENPRODIL] | 10 | – | – | – | – | – | – |
